Eleven sequences from patent US10526388B2, “Peptide derived from GPC3, pharmaceutical composition for treatment or prevention of cancer using the same, immunity inducer, and method for producing antigen-presenting cells” (CYTLIMIC INC., priority 2015, dated 2020) can be followed below.

Usually Kd stands for the equilibrium constant for the complex coming apart. A higher Kd goes with a looser complex.

Assay [1] deals with T1, HLA-A*02:06 molecule (Homo sapiens, UniProt P04439, D140Y/D185E/D98H/E176V/E277Q/F33Y/G131W/G231S/I119V/I121R/I166T/I218V/L300P/L318F/N151K/N90K/P208A/P217A/Q86G/Q94H/R138H/R169H/T345S).
T1 construct: expressed in transfected cells; host or cells: RA2.6 cells (RMAS mouse TAP-deficient line carrying HLA-A*02:06 cDNA; prepared at Kochi University)
In words: Binding experiment of peptide to HLA-A*02:06 molecule (RA2.6 cells, antibody BB7.2, flow cytometer). The note with it: for Kd: RA2.6 cells, 26° C. 60 minutes then 35° C. 4 hours, negative figures given (log of Kd value). The procedure:
The binding capacity of each peptide to the HLA-A*02:06 molecule as the product of HLA-A*02:06 gene was measured using RA2.6 cells (a cell line newly prepared at Kochi University) in which cDNA of the HLA-A*02:06 gene was introduced into RMAS as a mouse TAP (transporter associated with antigen processing)-deficient cell line.
First, the RA2.6 cells were cultured overnight at 26° C. to accumulate the HLA-A*02:06 molecules unbound to the peptide on the cell surface. Any of peptide dilution series was added thereto for binding at 26° C. for 60 minutes.
Subsequently, the mixture was cultured at 35° C. for 4 hours, resulting in the denaturation of the empty HLA-A*02:06 molecule unbound to the peptide and the loss of its steric structure. A fluorescent labeled monoclonal antibody, BB7.2, specifically recognizing a peptide-bound HLA-A*02:06 molecule, was added thereto, which was then incubated on ice for 20 minutes to stain the cells.
(§1) Thereafter, the amount of fluorescence per cell was measured using a flow cytometer, and the dissociation constant, Kd value, was calculated using a method as published in a paper by the present inventor (Udaka et al., Immunogenetics, 51, 816-828, 2000).
(A flow cytometer gives signals particle by particle.)

Assay [2] concerns the target HLA-A*24:02 molecule (Homo sapiens, UniProt P04439, D101N/D140Y/D185E/E176V/E190D/F33S/G103R/G107R/I119L/I121M/I306V/K335N/L105A/L180Q/L300P/N151K/N90K/Q86E/Q94H/R106L/R138H/R89G/T104I/T345S/V100E/W191G/Y123F). In words: Binding experiment of peptide to HLA-A*24:02 molecule (C1R-A24 cells, antibody 17A12, FACScan). The note with it: for Kd: C1R-A24 cells, on ice 4 hours, negative figures given (log of Kd value). The method, then:
The binding capacity of each peptide to the HLA-A*24:02 molecule as the product of HLA-A*24:02 gene was measured using C1R-A24 cells expressing the HLA-A*24:02 molecule (the cells prepared by Prof. Masafumi Takeguchi, Kumamoto University were gifted by Assoc. Prof. Masaki Yasukawa, Ehime University with permission).
First, C1R-A24 cells were exposed to acidic conditions of pH 3.3 for 30 seconds to dissociate and remove endogenous peptides which were originally bound to the HLA-A*24:02 molecule and a light chain, […], which was commonly associated with HLA class I molecules. After neutralization, purified β2m was added to the C1R-A24 cells, which was then added to peptide dilution series. The mixtures were each then incubated on ice for 4 hours. The 3-molecule assembly (MHC-pep) consisting of the HLA-A*24:02 molecule, the peptide, and β2 m which had been reasociated during the incubation was stained with a fluorescent labeled monoclonal antibody, 17A12, recognizing the assembly.
Subsequently, the number of MHC-pep's per C1R-A24 cell (which is proportional to the fluorescent intensity of the above fluorescent antibody) was quantitatively measured using a fluorescent cell analyzer, FACScan (Becton, Dickinson and Company). The binding dissociation constant, Kd value, between the HLA-A*24:02 molecule and the peptide was calculated from the average fluorescent intensity per cell using a method as published in a paper (Udaka et al., Immunogenetics, 51, 816-828, 2000) by the present inventor.

Assay [3] addresses HLA-A*02:01 molecule (Homo sapiens, UniProt P04439, D140Y/D185E/D98H/E176V/E277Q/G131W/G231S/I119V/I121R/I166T/I218V/L300P/L318F/N151K/N90K/P208A/P217A/Q86G/Q94H/R138H/R169H/T345S). In words: Binding experiment of peptide to HLA-A*02:01 molecule (T2 cells, antibody BB7.2, flow cytometer). The following applies: for Kd: T2 cells, 37° C. 4 hours, negative figures given (log of Kd value). The procedure:
The binding capacity of each peptide to the HLA-A*02:01 molecule as the product of HLA-A*02:01 gene was measured using a cell line, T2, (purchased from ATCC) expressing the HLA-A*02:01 molecule.
T2 cells and purified β2m were added to stepwise dilution series of a peptide whose binding capacity was to be measured, which was then incubated at 37° C. for 4 hours.
as §1

The test system of assay [4] is CD8T cells. The assay can be described thus: Immunity induction test of peptide (peptide-stimulated dendritic cells cocultured with CD8T cells, IFN-γ ELISPOT / ELISA). The class given is cell-based, human. The method, then:
(1) Preparation of Peptide-stimulated Dendritic Cell
Of peripheral blood monocytes obtained by pheresis from the patient treated with HSP70 dendritic cell therapy, a cell fraction adhering to the culture flask was cultured in AIM-CM medium (trade name “Gibco” from Thermo Fisher Scientific Co., Ltd.) at 37° C. for 10 days. During culture, 15 μl of IL-4 and 30 μl of granulocyte-monocyte colony-stimulating factor (GM-CSF) were added to the medium at day 0 and day 3, and 15 μl of IL-4, 30 μl of GM-CSF, and 75 μl of tumor necrosis factor (TNF)-α were added at day 5.
The dendritic cells induced were newly recovered into AIM-CM medium, and the peptides of the present invention (SEQ ID NOS: 1 to 11) were each added to 20 μg/ml. […]
The dendritic cells were recovered, washed 3 times or more with a sufficient amount of AIM-CM medium, and counted. […]
Using CD8 Negative Selection Kit (from Miltenyi Biotec), CD8T cells were separated from the medium and counted. […]
A culture supernatant at day 7 after coculture of T cells with dendritic cells pulsed with each of the above peptides was diluted to the 4 levels of ×1, ×5, ×25, and ×125 to identify the dilution level falling within the limit of measurement using Human IFN-γ ELISA MAX Deluxe Set (from BioLegend Inc.). Thereafter, each sample was measured 3 times at the identified dilution level. […]

Ends that are not written are not given here. A value given as a limit tells only on which side of the number the result lay.

With SALDINECL [SEQ ID NO: 3, SALDINECL], the Kd in assay [1] is 0.483 µM; in assay [2], greater than 1000 µM; in assay [3] it was greater than 1000 µM.

As to GMIKVKNQL [SEQ ID NO: 10, GMIKVKNQL], the Kd in assay [1] was 439 µM; in assay [2], 0.125 µM; in assay [3], 17.5 µM.

Consider MVNELFDSL [SEQ ID NO: 1, MVNELFDSL], for which the Kd in assay [1] was 0.724 µM; in assay [2] it was 20 µM; in assay [3], 4.94 µM.

For ALNLGIEVI [SEQ ID NO: 7, ALNLGIEVI], in assay [1], the “binding to HLA-A*02:06 molecule (in words)” value is “strongly binds” and the Kd was 69 µM. In addition, the “immunogenicity (in words)” value in assay [4] is listed as “high immunogenicity”. Besides, in assay [2], the “binding to HLA-A*24:02 molecule (in words)” value was “strongly binds” and the Kd is 111 µM. Further, in assay [3], the “binding to HLA-A*02:01 molecule (in words)” value is recorded as “strongly binds” and the Kd is 1.21 µM.

As for LLQSASMEL [SEQ ID NO: 8, LLQSASMEL], the Kd was 1.33 µM in assay [1], 3.25 µM in assay [2] and 0.73 µM in assay [3].

On to ARLNMEQLL [SEQ ID NO: 11, ARLNMEQLL], for which the Kd in assay [1] is 1720 µM; in assay [2], 6.26 µM; in assay [3], 144 µM.

Turning to SLQVTRIFL [SEQ ID NO: 4, SLQVTRIFL], the Kd in assay [1] was 6.11 µM; in assay [2] it was 4.61 µM; in assay [3], 0.616 µM.

As to GYICSHSPV [SEQ ID NO: 6, GYICSHSPV], the Kd in assay [1] was greater than 1000 µM; in assay [2], 0.283 µM; in assay [3], greater than 1000 µM.

As for LFDSLFPVI [SEQ ID NO: 2, LFDSLFPVI], the Kd was greater than 1000 µM in assay [1], 0.0374 µM in assay [2] and 8.61 µM in assay [3].

For SLTPQAFEF [SEQ ID NO: 5, SLTPQAFEF], the Kd is 30.5 µM in assay [1], 0.077 µM in assay [2] and 11.9 µM in assay [3].

As for KLTTTIGKL [SEQ ID NO: 9, KLTTTIGKL], the figures for the Kd in assay [1], in assay [2] and in assay [3] were 9.25 µM, 6.14 µM and 10.7 µM, respectively.
